In a melting point compilation (Tetko et al.):

Molecule O=C(O)c1cccc(C(=O)O)c1O has a melting point of 244 °C. COc1cc(C(c2c(O)cc(C)oc2=O)c2c(O)cc(C)oc2=O)ccc1O gave a melting point of 205 to 208 °C. Clc1cccnc1Br gave a melting point of 60 °C. With CC(=NNc1nc(C)cc(C)n1)c1ccccc1C the melting point was 176 °C. In the case of C/C(=N\CCN)c1c(O)c2ccccc2n(-c2ccccc2)c1=O, the melting point is reported as over 300 °C. For O=C(C1=NOC2C(=O)N(c3ccc(Cl)cc3)C(=O)C12)c1ccc2ccccc2c1 (configuration not stated), the melting point was 121 °C. For CN1CC(=O)NC1=N, the melting point was 255 °C. Nc1ccc(Oc2ccc(Cl)cc2)cc1 showed a melting point of 102 °C. Work on COc1cc(/C=C/C(=O)O)ccc1O yielded a melting point of 173 °C. CC1=CS(=O)(=O)c2ccc(Cl)cc21 gave a melting point of 168 to 172 °C. Molecule O=C1CNCCCNCC(=O)NCCCN1 has a melting point of 141 °C. In the case of CC(=O)CC(=O)Nc1ccc(-c2ccc(NC(=O)CC(C)=O)c(C)c2)cc1C, the melting point is reported as 212 °C. Work on COc1cccc(C=C[N+](=O)[O-])c1OC yielded a melting point of 83 to 85 °C. Molecule COc1cc(C(=O)c2ccc(C)cc2)c([N+](=O)[O-])cc1OC has a melting point of 110 °C. For Clc1cc2oc3c(Cl)cc(Cl)c(Cl)c3c2cc1Cl, the melting point was 237 °C. With O=C1CCCc2c1c1c3c(ccc4c3c2CCC4)CCC1 the melting point was 146 to 149 °C. O=C(CCl)OC(=O)CCl gave a melting point of 57.5 °C. In the case of Nc1ccccc1CN1CCOCC1, the melting point is reported as 70 to 71 °C. O=c1ccc2cc3ccoc3c(O)c2o1 showed a melting point of 252 °C. Molecule O=[N+]([O-])c1ccc2c(c1)OCCOCCOCCOCCO2 has a melting point of 95 to 98 °C. In the case of CC(C)(C)N(NC(=O)c1ccccc1)C(=O)c1cccc(Cl)c1, the melting point is reported as 180 °C. For COc1cccc(OC)c1N=C=O, the melting point was 45 to 47 °C. Molecule O=C(Cl)C1=Cc2cc(Cl)ccc2OC1 has a melting point of 92 to 94 °C. For c1ccc2nc(-c3cc(-c4cnc5ccccc5n4)cc(-c4cnc5ccccc5n4)c3)cnc2c1, the melting point was 302 °C. O=C(O)C=CC(=O)Nc1ccc(F)cc1 showed a melting point of 209 to 212 °C. With N=C(N)N1CCc2ccccc2C1 the melting point was 279 °C. Work on O=C(Oc1ccc2ccccc2c1-c1c(OC(=O)c2ccccc2)ccc2ccccc12)c1ccccc1 yielded a melting point of 163 to 166 °C. For CCOC(=O)CSc1nc(=O)[nH]c2c1CCCC2, the melting point was 192 to 193 °C. For CCOC(=O)c1c(-c2ccccc2)[nH]c2cc3[nH]c(-c4ccccc4)c(C(=O)OCC)c3cc12, the melting point was over 140 °C. Work on Cc1ccccc1N1CCN(CCc2nnc3n2CCCC3)CC1 yielded a melting point of 158 °C. For COC(=O)c1ccc(N)c(N)c1, the melting point was 108 to 109 °C. Cc1ccc(CO)cc1C gave a melting point of 64 °C. With CCCCCCCC(=O)OCCCCCC the melting point was -30.6 °C. OCc1cc(-c2ccco2)on1 showed a melting point of 90 to 91 °C. In the case of COc1cc(N)c(Cl)cc1C(=O)NC1CCN(Cc2ccccc2)CC1, the melting point is reported as 194 °C. For Cc1cc(O)ccc1F, the melting point was 32 °C. Cc1ccc(S(=O)(=O)N2CCCN(S(=O)(=O)c3ccc(C)cc3)CC(=O)NCCCNC(=O)C2)cc1 showed a melting point of 159 °C. With CC(=O)Oc1cc(OC(C)=O)cc(C(C)=O)c1 the melting point was 91 to 95 °C. Work on OCC(O)CN1CCCC1 (configuration not stated) yielded a melting point of 43 to 48 °C. Molecule O=[N+]([O-])c1ccc(C(Cl)=Cc2ccc(C=C(Cl)c3ccc([N+](=O)[O-])cc3[N+](=O)[O-])cc2)c([N+](=O)[O-])c1 has a melting point of 245 °C. CC(=O)Nc1ccc(C(F)(F)F)cc1N showed a melting point of 141 to 143 °C. For O=C1CCC(=O)C1, the melting point was 152 °C. In the case of CCCOC(=O)C1=C(C)NC(C)=C(C(=O)OCCC)C1c1ccco1, the melting point is reported as 112 °C. N#CCS(=O)(=O)Cc1cccc(C(F)(F)F)c1 gave a melting point of 119 to 121 °C. In the case of CSC(=Nc1nnc(-c2ccccc2)s1)SC, the melting point is reported as 111 to 113 °C. With c1ccc(N=NNc2ccccc2)cc1 the melting point was 98 °C. O=C(O)c1cncc(-c2cccs2)c1 showed a melting point of 261 °C. In the case of COS(=O)(=O)c1ccc(C)cc1, the melting point is reported as 28.5 °C. For CC(=O)c1c(-c2cccc(Cl)c2Cl)noc1C, the melting point was 62 to 64 °C. Molecule CCCCCCCCCCC(=O)c1ccccc1 has a melting point of 28 to 30 °C. In the case of Cc1cccc2c(C=O)c[nH]c12, the melting point is reported as 210 °C. With CC(=O)N(c1ccccc1)c1ccccc1 the melting point was 103 °C. With COc1ccc(C=CC(=O)Oc2ccc(C=CC(=O)c3ccccc3)cc2)cc1 the melting point was 158 °C. For COc1cc(OC)nc(NC(=O)NS(=O)(=O)c2c(-c3nnn(C)n3)cnn2C)n1, the melting point was 170 °C. Cc1cccc(C)c1N(Cn1cccn1)C(=O)CCl showed a melting point of 85 °C. For O=C(/C=C/c1ccccc1)NNc1ccccc1, the melting point was 187 °C. Molecule CC1NC2CCCCCCCC(=O)OC3CCC(CCCCCCCC(=O)OC1CC2)NC3C (configuration not stated) has a melting point of 121 °C. CC1(C)OC2COC3(CO)OC(C)(C)OC3C2O1 (configuration not stated) gave a melting point of 95.5 to 97.5 °C. Work on O=C(O)Cc1cccc(Br)c1 yielded a melting point of 101 °C. For O=C(O)c1cnn(-c2ccc([N+](=O)[O-])cc2)c1C(F)(F)F, the melting point was 202 to 204 °C. Molecule CS(=O)(=O)c1ccc(Br)cc1 has a melting point of 102 to 105 °C. With CC(=O)Nc1cc(Cl)ccc1C(=O)O the melting point was 202 to 207 °C. CC1CCCC(C)(C)C1=O (configuration not stated) showed a melting point of -31.8 °C. COC(=O)c1cc(Cl)nc(Cl)c1 showed a melting point of 82 to 83 °C. Work on C[Si](N[Si](C)(c1ccccc1)c1ccccc1)(c1ccccc1)c1ccccc1 yielded a melting point of 91 °C. For CC(=O)N(C)c1cccc(N(C)C(C)=O)c1, the melting point was 152 °C. With CC1=NC(C)CNc2c1c(=O)n(-c1ccccc1)c1ccccc21 (configuration not stated) the melting point was 273 °C. O=Cc1ccsc1Sc1ccc(Cl)cc1 gave a melting point of 57 to 60 °C. O=Cc1cccc(N2CCOCC2)n1 showed a melting point of 93 to 95 °C. Work on O=C(CCl)Nc1ccc(Oc2ccccc2)cc1 yielded a melting point of 104 to 106 °C. Molecule CC(C)(C)c1ccc(-c2cc(N)c(C(N)=O)s2)cc1 has a melting point of 244 to 248 °C. Work on O=C1c2ccccc2C(=O)N1O yielded a melting point of 233 to 235 °C. In the case of O=C(OC(=O)C(F)(F)C(F)(F)C(F)(F)F)C(F)(F)C(F)(F)C(F)(F)F, the melting point is reported as -43 °C. For O=C(Cl)c1cccc2c1OCCO2, the melting point was 98 to 99 °C. Molecule CC(C)(C)OC(=O)N1CCN(c2ccc(I)cn2)CC1 has a melting point of 102 to 105 °C. For Cc1ccc2nc3sc(=O)sc3nc2c1, the melting point was 170 °C. N#CCSc1ccc(F)cc1 showed a melting point of 34 °C. O=C(C=Nc1ccccc1)c1ccc(C(=O)C=Nc2ccccc2)cc1 gave a melting point of 155 °C. O=[N+]([O-])c1ccccc1/C=C/c1nc2ccccc2[nH]1 showed a melting point of 215 °C. O=C(Nc1ccccc1SSc1ccccc1NC(=O)c1ccccc1)c1ccccc1 showed a melting point of 142 °C. Molecule COC(=O)c1sccc1-c1ccc(C=O)o1 has a melting point of 117 to 118 °C. COc1ccc(NN=c2c(C)nc3ccccc3[nH]c2=O)cc1 gave a melting point of 196 °C. With Ic1ccc(-c2ccno2)cc1 the melting point was 139 to 140 °C. In the case of Cc1ccc(C2(c3ccc(C)o3)C(=O)Nc3ccccc32)o1, the melting point is reported as 216 °C. In the case of COc1cc2c(cc1OC)CN1C(=O)C(C)NC(=O)C1C2 (configuration not stated), the melting point is reported as 234 °C. N#Cc1ccc(F)c(F)c1 showed a melting point of 50 °C. CCCC(C)(C)C(=O)Nc1ccc(Cl)cc1 showed a melting point of 87.5 °C. In the case of N#CC(c1ccc(O)cc1)N1CCOCC1 (configuration not stated), the melting point is reported as 148 to 150 °C. With OC1OC(C2CCCCC2)Cc2ccccc21 (configuration not stated) the melting point was 87.2 to 90 °C. Work on CCCCO[Si](OCCCC)(OCCCC)OCCCC yielded a melting point of -80 °C. With COc1ccc2c(c1)C(=O)CC2 the melting point was 107 to 111 °C. Molecule Cc1cn(C2CCC(CO)O2)c(=O)[nH]c1=O (configuration not stated) has a melting point of 156 °C. Work on c1ccc2c(c1)c1ccccc1n2CC1CO1 (configuration not stated) yielded a melting point of 110 to 112 °C. In the case of CC1=C(C(=O)OCc2ccccc2)C(c2ccccc2)NC(=O)N1C (configuration not stated), the melting point is reported as 118 °C. O=C(N[C@@H](Cc1ccccc1)C(=O)Oc1c(F)c(F)c(F)c(F)c1F)OCC1c2ccccc2-c2ccccc21 showed a melting point of 151 to 152 °C. CC(=O)Oc1ccc(N=C2C=CC(=O)C=C2)cc1 gave a melting point of 111 to 116 °C. In the case of O=C1C(Cl)C(CCl)CN1c1cccc(C(F)(F)F)c1 (configuration not stated), the melting point is reported as 67.7 °C. Work on CC(C)(C)c1cc(C(C)(C)C)c2oc3c(C(C)(C)C)cc(C(C)(C)C)c(=O)c-3nc2c1 yielded a melting point of 210 °C. In the case of Ic1ccc(-n2cccc2)cc1, the melting point is reported as 131 °C. Work on Nc1noc2ccccc12 yielded a melting point of 110 to 112 °C. O=C(O)c1ccc(N2C(=O)C3ON=C(C(=O)c4ccc(Cl)cc4)C3C2=O)cc1 (configuration not stated) showed a melting point of 143 °C. For C/C(=C(/C#N)c1nc2ccccc2s1)c1cc2ccccc2oc1=O, the melting point was 155 °C. CC1(C)OC(c2ccco2)CN1C(=O)C(Cl)Cl (configuration not stated) gave a melting point of 97 °C. With CC(C)CC(C)(C)CO the melting point was -70 °C. Molecule CC(=O)NC(N)=S has a melting point of 165 °C. Work on CC(CCC(=O)O)C1CCC2C3C(=O)CC4CC5(CCC4(C)C3CC(=O)C12C)OCCO5 (configuration not stated) yielded a melting point of 222 °C. O=C1OC(c2ccccc2)=NC1=Cc1ccc(Cl)cc1Cl gave a melting point of 180 °C. With COC(=O)CC(C)=O the melting point was 27.5 °C. Work on CCOc1ccc(Br)cc1 yielded a melting point of 4 °C. Clc1ccc(OCOc2ccc(Cl)cc2)cc1 gave a melting point of 70.5 °C. C=Cc1ccc(C(=O)OC)cc1 gave a melting point of 36 °C. O=[N+]([O-])c1cc([N+](=O)[O-])c(/C=C/c2cccc3c2OCO3)cc1/C=C/c1cccc2c1OCO2 showed a melting point of 215 °C. With Cc1nn(C)c2sc(CO)cc12 the melting point was 133 to 135 °C. In the case of COCC(C)c1c(O)c2c(c(OC)c1OC)C1(C)CCCC(C)(C)C1C(=O)C2=O (configuration not stated), the melting point is reported as 90 to 92 °C. In the case of O=C1C=C(NCCNc2ccccc2)C(=O)c2ccccc21, the melting point is reported as 140 to 142 °C. With O=[N+]([O-])c1ccc(N/N=C/c2ccccc2)c([N+](=O)[O-])c1 the melting point was 240 °C. Work on O=S(=O)(O)c1ccc2ccc(S(=O)(=O)O)cc2c1 yielded a melting point of 199 °C. For O=Cc1cccn1S(=O)(=O)c1ccccc1, the melting point was 76 to 77 °C. For COc1ccc(Cl)nn1, the melting point was 91 °C. For COc1c(Cl)cccc1[N+](=O)[O-], the melting point was 58 °C. In the case of O=C(O)c1ccc(Cl)cc1Br, the melting point is reported as 159 to 161 °C. Work on Nc1c(Br)cc(Br)c(F)c1C(=O)O yielded a melting point of 235 to 238 °C.
